The target of this assay is T1, prostate-specific membrane antigen (PSMA) (Homo sapiens, UniProt Q04609).
T1 construct: gene FOLH1
The assay is described as follows: competitive radioligand binding on intact PSMA-expressing LNCaP cells against [^[…]]Ga-PSMA-HBED-CC. It is filed as cell-based.

SMILES strings stand for the structures.

T1 sequence (Q04609 whole entry): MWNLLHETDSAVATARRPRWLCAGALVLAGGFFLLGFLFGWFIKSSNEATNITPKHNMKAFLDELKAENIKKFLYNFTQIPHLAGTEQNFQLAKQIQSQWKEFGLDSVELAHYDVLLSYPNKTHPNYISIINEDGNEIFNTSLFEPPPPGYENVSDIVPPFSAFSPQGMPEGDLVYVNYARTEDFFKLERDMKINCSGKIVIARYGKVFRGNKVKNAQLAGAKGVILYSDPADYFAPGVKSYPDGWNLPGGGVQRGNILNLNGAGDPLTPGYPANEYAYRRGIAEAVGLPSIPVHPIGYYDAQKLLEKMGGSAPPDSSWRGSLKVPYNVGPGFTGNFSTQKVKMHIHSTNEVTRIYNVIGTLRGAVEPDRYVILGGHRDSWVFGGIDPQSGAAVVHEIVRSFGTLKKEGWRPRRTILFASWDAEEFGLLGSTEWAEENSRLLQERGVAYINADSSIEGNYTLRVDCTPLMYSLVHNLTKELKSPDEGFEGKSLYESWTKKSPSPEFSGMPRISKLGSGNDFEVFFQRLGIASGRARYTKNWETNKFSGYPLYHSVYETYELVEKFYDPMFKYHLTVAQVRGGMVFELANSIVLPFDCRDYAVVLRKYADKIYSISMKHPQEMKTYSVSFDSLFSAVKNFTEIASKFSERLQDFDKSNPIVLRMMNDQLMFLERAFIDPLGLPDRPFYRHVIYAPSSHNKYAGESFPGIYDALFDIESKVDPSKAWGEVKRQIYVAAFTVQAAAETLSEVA

In turn, `O=C(O)CCc1ccc2c(c1)CN1CCN(CC(=O)O)Cc3cc(CCC(=O)NCCCCCC(=O)NCCCC[C@H](NC(=O)N[C@@H](CCC(=O)O)C(=O)O)C(=O)O)ccc3[O][Ga]([O]C(=O)C1)[O]2` [[^natGa]Ga-PSMA-HBED-CC] came in with an IC50 of 24.8 ± 1.2 nM.

A word on the IC50: it is the point on the concentration scale where inhibition reaches its midpoint. A higher IC50 goes with weaker potency in that assay.

Values taken from PMC4113732, “Novel Preclinical and Radiopharmaceutical Aspects of [^68Ga]Ga-PSMA-HBED-CC: A New PET Tracer for Imaging of Prostate Cancer” (Pharmaceuticals, 2014).
